Columns and labels:
[1] = test system: Cholesterol biosynthesis in the liver; test: Assay of cholesterogenesis in the liver; assay type: in vivo; conditions: Wistar fatty rats, liver total sterol radioactivity from 14C sodium acetate
Description: Cholesterol biosynthesis in the liver of a rat was assayed as follows. Six-week old Wistar fatty rats were given orally a test compound [Compound 4-2 (suspended in a 0.5% methyl cellulose solution)], while the control group was orally given only a 0.5% methyl cellulose solution. One hour later, sodium acetate labelled with radioisotope ^14C (manufactured by Amasham) was given intravenously at the tail (10 μCi/0.3 ml physiological saline/rat). One hour layer, rats were sacrificed by decapitation, and 1.5 g of the first lobe of the liver was removed, which was saponified by immersing in 3.9 ml of an alkaline ethanol solution (KOH:EtOH=1:2) at 100° C. for two hours, followed by extraction with 5 ml each portion of petroleum ether three times. The extract solution was dried, which was dissolved in 3 ml of ethanol:acetone (1:1). To the solution was added 2 ml of a 0.5% digitonin-ethanol solution. The mixture was left standing for one hour. Resulting precipitates were collected as total sterol, and the radioactivity was measured by means of a liquid scintillation counter.

squalene synthetase = target: T1, squalene synthetase (Homo sapiens, UniProt P37268); test: Squalene synthetase inhibitory activity (human-derived enzyme prepared from HepG2 cells); assay type: biochemical; conditions: [1-3H] farnesyl pyrophosphate, 37° C., 45 minutes, read-out: Inhibitory Activity (IC50, 10^−9 M)
T1 construct: This suspension was used as the enzyme solution; endogenous in cells; host or cells: HepG2 human hepatic carcinoma cells; membrane fraction (105000×g sediment) of the sonicate
T1 sequence (P37268 1-417): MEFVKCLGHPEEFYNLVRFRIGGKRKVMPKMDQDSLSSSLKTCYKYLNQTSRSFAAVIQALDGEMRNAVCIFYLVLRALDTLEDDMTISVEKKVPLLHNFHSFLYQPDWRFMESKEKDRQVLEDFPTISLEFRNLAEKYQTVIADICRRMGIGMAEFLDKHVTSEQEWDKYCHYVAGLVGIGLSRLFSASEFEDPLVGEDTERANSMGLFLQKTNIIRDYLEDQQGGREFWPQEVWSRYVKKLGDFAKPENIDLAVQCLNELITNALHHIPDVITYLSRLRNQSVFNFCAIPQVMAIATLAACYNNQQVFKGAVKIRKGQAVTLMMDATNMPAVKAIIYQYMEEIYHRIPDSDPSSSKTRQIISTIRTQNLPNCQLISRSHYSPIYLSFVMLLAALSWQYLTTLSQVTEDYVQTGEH
Description: The squalene synthetase inhibitory activity was assayed as follows with the enzyme solutions prepared in accordance with the method described below.
More specifically, an enzyme solution (protein content 0.8 μg) prepared in accordance with the method described below was added to a solution (total volume 50 μl)) containing 5 μM [1-^3H] farnesyl pyrophosphate (specific activity 25 μCi/mole), 1 mM NADPH (nicotinamide adenine dinucleotide phosphate of reduced type), 5 mM MgCl2, 6 mM glutathione, a 100 mM buffer solution of potassium phosphate (pH 7.4) and a test drug (used as an aqueous solution or a DMSO solution), then the reaction was allowed to proceed at 37° C. for 45 minutes. To the reaction mixture was added 150 μl of a mixture of chloroform and methanol (1:2) to suspend the reaction, followed by adding 50 Al of chloroform and 50 μl of a 3N solution of sodium hydroxide. 50 μl of the chloroform layer (lower layer) containing the reaction mixture having squalene as the principal component and 3 ml of toluene-based liquid scintillator were mixed, and its radioactivity was determined by means of a liquid scintillation counter.
The squalene synthetase inhibitory activity was expressed in terms of the concentration inhibiting by 50% the radioactivity taken into the chloroform layer (IC50, molar concentration (M)), as shown in Table 7. Preparation of human-derived enzyme
Human hepatic carcinoma cells HepG2 (about 1×10^9 cells) obtained by incubation on a Dulbecco-modified Eagle's medium (37° C. in the presence of 5% CO2) containing 10% fetal bovine serum were suspended in 10 ml of an ice-cooled buffer solution (100 mM potassium phosphate buffer (pH 7.4), 30 mM nicotinamide and 2.5 mM MgCl2]. The cells were crashed by means of ultrasonication (for 30 seconds, twice). The sonicate thus obtained was subjected to centrifugation for 20 minutes (4° C.) with 10000×g. The supernatant layer was subjected to further centrifugation for 90 minutes (4° C.) with 105000×g. The sediment was then suspended in an ice-cooled 100 mM potassium phosphate buffer (pH 7.4), which was again subjected to centrifugation for 90 minutes (4° C.) with 105000×g. This fraction was suspended in an ice-cooled 100 mM potassium phosphate buffer solution (pH 7.4) (about 4 mg/ml protein concentration). This suspension was used as the enzyme solution.

Row | Structure (SMILES) | melting point [°C] | IC50 (squalene synthetase) [nM] | Cholesterogenesis inhibitory rate (%) ([1]; 0.6 mg/kg given orally) | Cholesterogenesis inhibitory rate (%) ([1]; 2.0 mg/kg given orally)
1 | COc1cccc([C@H]2O[C@H](CC(=O)N3CCN(CC(=O)O)C(=O)C3)C(=O)N(CC(C)(C)C)c3ccc(Cl)cc32)c1OC [Compound 4-31] | 162 to 164 | 20 | – | –
2 | COc1cccc([C@H]2O[C@H](CC(=O)N[C@@H](CCC(=O)O)C(=O)O)C(=O)N(CC(C)(C)C)c3ccc(Cl)cc32)c1OC [Compound 4-9] | 152 to 155 | 11 | – | –
3 | COc1cccc([C@H]2O[C@H](CC(=O)NCP(=O)(O)O)C(=O)N(CC(C)(C)C)c3ccc(Cl)cc32)c1OC [Compound 22, (3R,5S)-N-phosphonomethyl-7-chloro-5-(2,3-dimethoxyphenyl)-1-neopentyl-2-oxo-1,2,3,5-tetrahydro-4,1-benzoxazepine-3-acetamide] | 152 to 155 | 8.5 | – | –
4 | COc1cccc([C@H]2O[C@H](CC(=O)N[C@@H](CC(C)C)C(=O)O)C(=O)N(CC(C)(C)C)c3ccc(Cl)cc32)c1OC [Compound 4-30] | 87 to 92 | 12 | – | –
5 | CCS(=O)(=O)NC(=O)C[C@H]1O[C@H](c2cccc(OC)c2OC)c2cc(Cl)ccc2N(CC(C)(C)C)C1=O [Compound 17-4] | 135 to 140 | 9.3 | – | –

Continued by falling IC50 (squalene synthetase), values first:

Row | melting point [°C] | IC50 (squalene synthetase) [nM] | Structure (SMILES) | Cholesterogenesis inhibitory rate (%) ([1]; 0.6 mg/kg given orally) | Cholesterogenesis inhibitory rate (%) ([1]; 2.0 mg/kg given orally)
6 | 137 to 140 | 22 | COc1cccc([C@H]2O[C@H](CC(=O)N3CCC(CC(=O)O)CC3)C(=O)N(CC(C)(C)C)c3ccc(Cl)cc32)c1OC [Compound 4-2, N-[(3R,5S)-7-chloro-5-(2,3-dimethoxyphenyl)-1-neopentyl-2-oxo-1,2,3,5-tetrahydro-4,1-benzoxazepine-3-acetyl]piperidine-4-acetic acid] | 80.1 | 90.4
7 | 134 to 136 | 19 | COc1cccc([C@H]2O[C@H](CC(=O)N[C@@H](Cc3ccccc3)C(=O)O)C(=O)N(CC(C)(C)C)c3ccc(Cl)cc32)c1OC [Compound 4-15] | – | –
8 | 156 to 159 | 18 | COc1cccc([C@H]2O[C@H](CC(=O)N3CCC(O)(C(=O)O)CC3)C(=O)N(CC(C)(C)C)c3ccc(Cl)cc32)c1OC [Compound 4-19] | – | –
9 | 187 to 189 | 15 | COc1cccc([C@H]2O[C@H](CC(=O)N3CCC(C(=O)NS(C)(=O)=O)CC3)C(=O)N(CC(C)(C)C)c3ccc(Cl)cc32)c1OC [Compound 18] | – | –

Source: US6613761B1, “Benzoxazepine compounds, their production and use” (Takeda Chemical Industries, Ltd., priority 1995, dated 2003)
